Patent US20080009437A1, “Pharmaceutical Compositions and Method for Treating Dry Eye” (priority 2006, published 2008)
“And” between values parts separate entries of the source, which are not always exact repeats. Identical values can stand only once. “Also recorded” adds a separate entry of the source.

Experiments:
[1] = tested on: rabbit eye (anterior chamber paracentesis); test: Pupillary diameter measurement, rabbit paracentesis model; type: in vivo; settings: group mean, n=8 eyes
Protocol: (§1) Each rabbit was placed in a restraint device and tagged with the alphanumeric code. The formulations were instilled (50 μl) into the conjunctival sac of both eyes 180, 120, 90 and 30 min before the first paracentesis; then 15, 30, 90 min after the first paracentesis. To perform the first paracentesis the animals were anaesthetized by intraveneous injection of 5 mg/kg Zoletil® (Virbac; 2.5 mg/kg tiletamine HCl and 2.5 mg/kg zolazepam HCl) and one drop of local anesthetic (Novesina®, Novartis) was administered to the eye. Anterior chamber paracentesis was performed with a 26 G needle attached to a tuberculin syringe; the needle was introduced into the anterior chamber through the cornea, taking care not to damage the tissues. Two hours after the first paracentesis, the animals were sacrificed with 0.4 ml Tanax® (Intervet International B. V.) and the second paracentesis was performed. About 100 μl of aqueous humor were removed at the second paracentesis. Aqueous humor was immediately split in four aliquots and stored at −80° C. until analysis. Then both eyes were enucleated and the iris-ciliary body was carefully excised, placed in polypropylene tubes, and stored at −80° C. until analysis.
The pupillary diameter of both eyes was measured with a Castroviejo caliper 180 min and 5 min before the first paracentesis and 5 min before the second paracentesis.
(§2) Pupillary diameter, PGE2, protein, PMN, and MPO were expressed as mean±SEM. Statistical analysis was performed using one way ANOVA followed by a Newman-Keuls post hoc test. Clinical score was expressed as % of eyes and the statistical analysis was performed using Kruskal-Wallis followed by a Dunn post hoc test. P<0.05 was considered statistically significant in both cases. Prism 4 software (GraphPad Software, Inc.) was used for the analysis and graphs.

[2] = tested on: PGE2 in the aqueous humor; test: Prostaglandin E2 (PGE2) measurement in aqueous humor; type: in vivo, Rabbit; settings: individual eye sample, second paracentesis
[3] = tested on: leukocytes (PMN) in aqueous humor; test: Leukocytes (PMN) measurement in aqueous humor; type: in vivo, Rabbit; settings: second paracentesis; for PMN in aqueous humor, Mean (number/μl): group mean; for PMN (number/μl) in aqueous humor, raw data: individual eye sample
Protocol: as §1
For the determination of the number of leukocytes we used a haemocytometer (Improved Neubauer Chamber; Brigth-line, Hausser Scientific) and a Polyvar 2 microscope (Reichert-Jung).
as §2

[4] = tested on: rabbit paracentesis model; test: Rabbit paracentesis model, overall anti-inflammatory activity; type: in vivo; settings: 0.1%, 0.5% and 1% topical formulations; preliminary conclusions; listed as BOL-303242-X
Source text: Inflammatory processes are multidimensional in origin, and are characterized by complex cellular and molecular events involving numerous components all of which have not been identified. Prostaglandins are among these mediators and play an important role in certain forms of ocular inflammation. Paracentesis of the anterior chamber in the rabbit eye induces inflammatory reaction due to the disruption of the blood-aqueous barrier (“BAB”), which is mediated, at least in part, by prostaglandin E2 [References 1-3 below]. Intraocular or topical administration of PGE2 disrupts the BAB. [Reference 4, below] The treatment schedule adopted in this study was similar to the clinical NSAIDs (Ocufen) treatment schedule used by surgeons for patients before cataract surgery.
Each rabbit was placed in a restraint device and tagged with the alphanumeric code. The formulations were instilled (50 μl) into the conjunctival sac of both eyes 180, 120, 90 and 30 min before the first paracentesis; then 15, 30, 90 min after the first paracentesis. To perform the first paracentesis the animals were anaesthetized by intraveneous injection of 5 mg/kg Zoletil® (Virbac; 2.5 mg/kg tiletamine HCl and 2.5 mg/kg zolazepam HCl) and one drop of local anesthetic (Novesina®, Novartis) was administered to the eye. […]

Structure (SMILES) | Mean (mm) Δ(T3-T1) pupillary diameter ([1]; 0.1% topical formulation) [mm] | PGE2 (ng/ml) in aqueous humor, raw data ([2]; 0.1% topical formulation) | PMN in aqueous humor, Mean (number/μl) ([3]; 0.1% topical formulation) | PMN (number/μl) in aqueous humor, raw data ([3]; 0.1% topical formulation) | Mean (mm) Δ(T3-T1) pupillary diameter ([1]; 0.03% topical formulation) [mm] | PGE2 (ng/ml) in aqueous humor, raw data ([2]; 0.03% topical formulation) | PMN in aqueous humor, Mean (number/μl) ([3]; 0.03% topical formulation) | PMN (number/μl) in aqueous humor, raw data ([3]; 0.03% topical formulation) | Mean (mm) Δ(T3-T1) pupillary diameter ([1]; 0.5% topical formulation) [mm] | PGE2 (ng/ml) in aqueous humor, raw data ([2]; 0.5% topical formulation) | PMN (number/μl) in aqueous humor, raw data ([3]; 0.5% topical formulation) | Mean (mm) Δ(T3-T1) pupillary diameter ([1]; 1% topical formulation) [mm] | PGE2 (ng/ml) in aqueous humor, raw data ([2]; 1% topical formulation) [ng/mL] | PMN (number/μl) in aqueous humor, raw data ([3]; 1% topical formulation) | Anti-inflammatory activity in rabbit paracentesis model (conclusion) [4]
C[C@@H]1C[C@H]2[C@@H]3CCC4=CC(=O)C=C[C@]4(C)[C@@]3(F)[C@@H](O)C[C@]2(C)[C@@]1(O)C(=O)CO [Dex, dexamethasone] | −0.8 | 2.10 ng/mL and 1.30 ng/mL | 30.000 | 20 number/μl (3×) and 50 number/μl and 40 number/μl and 30 number/μl | – | – | – | – | – | – | – | – | – | – | –
CC(C(=O)O)c1ccc(-c2ccccc2)c(F)c1 (stereo not drawn) [F, flurbiprofen] | – | – | – | – | −0.9 | 0.75 ng/mL and 0.85 ng/mL and 0.93 ng/mL and 0.61 ng/mL | 30.000 | 50 number/μl and 40 number/μl (2×) and 20 number/μl (2×) and 10 number/μl and 30 number/μl | – | – | – | – | – | – | –
CCOC(=O)O[C@]1(C(=O)OCCl)CC[C@H]2[C@@H]3CCC4=CC(=O)C=C[C@]4(C)[C@H]3[C@@H](O)C[C@@]21C [LE, loteprednol etabonate] | – | – | – | – | – | – | – | – | −0.9 | ^2N/D^ and 0.23 ng/ml and 0.68 ng/ml and 1.10 ng/ml | 40 number/μl (2×) and 20 number/μl (3×) and 30 number/μl | – | – | – | –
Cc1ccc2c(NCC(O)(CC(C)(C)c3cc(F)cc4c3OCC4)C(F)(F)F)cccc2n1 (stereo not drawn) [BOL] | −1.1 | 0.70 ng/mL | – | 20 number/μl (4×) and 40 number/μl and 50 number/μl | – | – | – | – | −1.0 | 0.53 ng/mL and 0.75 ng/mL and 0.80 ng/mL | 40 number/μl (2×) and 20 number/μl (3×) and 10 number/μl (3×) | −0.9 | 0.50 | 30 number/μl (3×) and 20 number/μl (3×) and 40 number/μl (2×) | active in this model; also recorded: as effective an anti-inflammatory drug as some of the commonly accepted prior-art steroids or NSAID
